Patent publication US12466821B2 (Novartis AG, priority 2018, dated 2025)

Columns and labels:
[1] = molecular target: human CMV DNA polymerase UL54 (Human cytomegalovirus (strain AD169) (HHV-5) (Human herpesvirus 5), UniProt P08546); assay: CMV polymerase biochemical assay (molecular beacon-based)
Method in brief: (§1)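 Readout was beacon fluorescence (ex 480, em 535 nm), used to derive IC50. Each dNTP was at 1.25 uM, with 200 nM primer and 100 nM beacon, after a 30-min RT inhibitor preincubation. Enzyme was 625 pM for HSV UL30 (20 min RT reaction) or 100 pM for CMV UL54 (60 min RT), both sf9-expressed MBP fusions, in pH 7.5 Tris buffer with MgCl2.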

[2] = molecular target: human HSV DNA polymerase UL30 (Human herpesvirus 1 (strain 17) (HHV-1) (Human herpes simplex virus 1), UniProt P04293); assay: HSV polymerase biochemical assay (molecular beacon-based)
Method in brief: as §1

[3] = test system: Luciferase-encoding HCMV, AD169 strain; assay: CMV Luciferase assay (cellular herpesvirus replication); type: cell-based; details: Human betaherpesvirus 5, AD169, read-out: CMV-Luc Cellular EC50
Method in brief: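 Neonatal human dermal fibroblasts were pretreated 1 h with compound (final 0.0159–50 μM or 0.00318–10 μM, 0.5% DMSO), then infected at MOI 1 with AD169 carrying pp28-promoter luciferase. After 72 h at 37 °C, Renilla-Glo luminescence normalized to no-virus and virus-only controls; EC50 by 4-parameter logistic model.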

Compound | IC50 [1] [µM] | IC50 [2] [µM] | EC50 [3] [µM]
O=C(NCc1ccc(Cl)cc1)c1ccc2n(c1=O)CCN(CC1(N3CCCS3(=O)=O)CC1)C2=O [Example 70, N-(4-chlorobenzyl)-2-((1-(1,1-dioxidoisothiazolidin-2-yl)cyclopropyl)methyl)-1,6-dioxo-2,3,4,6-tetrahydro-1H-pyrido[1,2-a]pyrazine-7-carboxamide] | 0.0014 | 0.0281 | 0.0401
CN(C)S(=O)(=O)CCN1CCn2c(ccc(C(=O)NCc3ccc(Cl)cc3)c2=O)C1=O [Example 71, N-(4-chlorobenzyl)-2-(2-(N,N-dimethylsulfamoyl)ethyl)-1,6-dioxo-2,3,4,6-tetrahydro-1H-pyrido[1,2-a]pyrazine-7-carboxamide] | 0.347 | 2.78 | 3.05
CC(C)(C)NS(=O)(=O)C1(CN2CCn3c(ccc(C(=O)NCc4ccc(Cl)cc4)c3=O)C2=O)CC1 [Example 72-1, 2-((1-(N-(tert-butyl)sulfamoyl)cyclopropyl)methyl)-N-(4-chlorobenzyl)-1,6-dioxo-2,3,4,6-tetrahydro-1H-pyrido[1,2-a]pyrazine-7-carboxamide] | 0.0006 | 0.0235 | 0.0292
NS(=O)(=O)C1(CN2CCn3c(ccc(C(=O)NCc4ccc(Cl)cc4)c3=O)C2=O)CC1 [Example 72-2, N-(4-chlorobenzyl)-1,6-dioxo-2-((1-sulfamoylcyclopropyl)methyl)-2,3,4,6-tetrahydro-1H-pyrido[1,2-a]pyrazine-7-carboxamide] | 0.0012 | 0.0264 | 0.0502
CC(=O)NS(=O)(=O)C1(CN2CCn3c(ccc(C(=O)NCc4ccc(Cl)cc4)c3=O)C2=O)CC1 [Example 72-3, 2-((1-(N-acetylsulfamoyl)cyclopropyl)methyl)-N-(4-chlorobenzyl)-1,6-dioxo-2,3,4,6-tetrahydro-1H-pyrido[1,2-a]pyrazine-7-carboxamide] | 0.0008 | 0.0311 | 0.805
CC(C)(C)NS(=O)(=O)C1(CN2CCn3c(ccc(C(=O)NCc4ccc(C#N)cc4)c3=O)C2=O)CC1 [Example 73-1] | 0.0015 | 0.0469 | 0.0937
CC(=O)NS(=O)(=O)C1(CN2CCn3c(ccc(C(=O)NCc4ccc(C#N)cc4)c3=O)C2=O)CC1 [Example 73-3] | 0.0016 | 0.0459 | 9.31
CN(C(C)(C)C)S(=O)(=O)C1(CN2CCn3c(ccc(C(=O)NCc4ccc(Cl)cc4)c3=O)C2=O)CC1 [Example 74-1] | 0.0004 | 0.0227 | 0.0137
CNS(=O)(=O)C1(CN2CCn3c(ccc(C(=O)NCc4ccc(Cl)cc4)c3=O)C2=O)CC1 [Example 74-2] | 0.0016 | 0.0521 | 0.0145
CN(C(C)(C)C)S(=O)(=O)C1(CN2CCn3c(ccc(C(=O)NCc4ccc(C#N)cc4)c3=O)C2=O)CC1 [Example 75-1] | 0.0011 | 0.0459 | 0.0356
CNS(=O)(=O)C1(CN2CCn3c(ccc(C(=O)NCc4ccc(C#N)cc4)c3=O)C2=O)CC1 [Example 75-2] | 0.0027 | 0.0773 | 0.0622
O=C(NCc1ccc(Cl)cc1)c1ccc2n(c1=O)CCN(CC1(S(=O)(=O)C3(F)CC3)CC1)C2=O [Example 76, N-(4-chlorobenzyl)-2-((1-((1-fluorocyclopropyl)sulfonyl)cyclopropyl)methyl)-1,6-dioxo-2,3,4,6-tetrahydro-1H-pyrido[1,2-a]pyrazine-7-carboxamide] | 0.0019 | 0.0595 | 0.0469
N#Cc1ccc(CNC(=O)c2ccc3n(c2=O)CCN(CC2(S(=O)(=O)C4(F)CC4)CC2)C3=O)cc1 [Example 77-1, N-(4-cyanobenzyl)-2-((1-((1-fluorocyclopropyl)sulfonyl)cyclopropyl)methyl)-1,6-dioxo-2,3,4,6-tetrahydro-1H-pyrido[1,2-a]pyrazine-7-carboxamide] | 0.0032 | 0.0954 | 0.126
